Measurements published in ChEMBL document CHEMBL1137052 (Bioorg Med Chem Lett, 2004).

tested on: not listed separately; experiment: Area under plasma concentration-time curve in rat upon oral/iv administration at 2 mg/kg; assay type: ADME, organism-based; set-up: dose 2 mg/kg; settings: in vivo

AUC | Compound
300 ng·h/mL | NC(=O)N(O)CCC#Cc1ccc(OCCN2CCN([C@H](c3ccccc3)c3ccc(Cl)cc3)CC2)cc1
83 ng·h/mL | NC(=O)N(O)CCC#Cc1ccc(OCCN2CCC(=C3c4ccc(Cl)cc4CCc4cccnc43)CC2)cc1

tested on: not listed separately; experiment: Maximum plasma concentration in rat upon oral/iv administration at 2 mg/kg; assay type: ADME, organism-based; set-up: dose 2 mg/kg; settings: not given

Cmax | Compound
66 ng/mL | NC(=O)N(O)CCC#Cc1ccc(OCCN2CCN([C@H](c3ccccc3)c3ccc(Cl)cc3)CC2)cc1
30 ng/mL | NC(=O)N(O)CCC#Cc1ccc(OCCN2CCC(=C3c4ccc(Cl)cc4CCc4cccnc43)CC2)cc1

tested on: not listed separately; experiment: Metabolic clearance in rat liver microsomes; assay type: ADME, Microsome; settings: read-out: Clearance

Compound | microsomal CLint
NC(=O)N(O)CCC#Cc1ccc(OCCN2CCN([C@H](c3ccccc3)c3ccc(Cl)cc3)CC2)cc1 | 48 µL/min/mg
NC(=O)N(O)CCC#Cc1ccc(OCCCN2CCN([C@H](c3ccccc3)c3ccc(Cl)cc3)CC2)cc1 | 108 µL/min/mg

Continued, values first:

microsomal CLint | Compound
101 µL/min/mg | NC(=O)N(O)CCC#Cc1ccc(OCCN2CCC(=C3c4ccc(Cl)cc4CCc4cccnc43)CC2)cc1
138 µL/min/mg | NC(=O)N(O)CCC#Cc1ccc(OCCCCN2CCN(C(c3ccc(F)cc3)c3ccc(F)cc3)CC2)cc1

tested on: not listed separately; experiment: Metabolic clearance in human liver microsomes; assay type: ADME, Microsome; settings: read-out: Clearance

microsomal CLint | Compound
2 µL/min/mg | NC(=O)N(O)CCC#Cc1ccc(OCCN2CCN([C@H](c3ccccc3)c3ccc(Cl)cc3)CC2)cc1
15 µL/min/mg | NC(=O)N(O)CCC#Cc1ccc(OCCN2CCC(=C3c4ccc(Cl)cc4CCc4cccnc43)CC2)cc1
13 µL/min/mg | NC(=O)N(O)CCC#Cc1ccc(OCCCCN2CCN(C(c3ccc(F)cc3)c3ccc(F)cc3)CC2)cc1

tested on: not listed separately; experiment: Metabolic clearance in guinea pig liver microsomes; assay type: ADME, Cavia porcellus, Microsome; settings: read-out: Clearance

Compound | microsomal CLint
NC(=O)N(O)CCC#Cc1ccc(OCCN2CCN([C@H](c3ccccc3)c3ccc(Cl)cc3)CC2)cc1 | 19 µL/min/mg
NC(=O)N(O)CCC#Cc1ccc(OCCCN2CCN([C@H](c3ccccc3)c3ccc(Cl)cc3)CC2)cc1 | 99 µL/min/mg

Further lines, results first:

microsomal CLint | Compound
105 µL/min/mg | NC(=O)N(O)CCC#Cc1ccc(OCCN2CCC(=C3c4ccc(Cl)cc4CCc4cccnc43)CC2)cc1
111 µL/min/mg | NC(=O)N(O)CCC#Cc1ccc(OCCCCN2CCN(C(c3ccc(F)cc3)c3ccc(F)cc3)CC2)cc1

tested on: Cavia porcellus; experiment: Percent inhibition of histamine-induced bronchoconstriction in guinea pig after 3h of oral dose of 2 mg/kg; settings: not given

Compound | inhibition in vivo at 2 mg/kg
NC(=O)N(O)CCC#Cc1ccc(OCCN2CCN([C@H](c3ccccc3)c3ccc(Cl)cc3)CC2)cc1 | 62%
NC(=O)N(O)CCC#Cc1ccc(OCCN2CCC(=C3c4ccc(Cl)cc4CCc4cccnc43)CC2)cc1 | 65%

tested on: not listed separately; experiment: Plasma concentration of compound in guinea pig after 3h of oral dose of 2 mg/kg; assay type: ADME, organism-based, Cavia porcellus; set-up: dose 2 mg/kg, route oral; settings: in vivo

concentration | Compound
187 ng/mL | NC(=O)N(O)CCC#Cc1ccc(OCCN2CCN([C@H](c3ccccc3)c3ccc(Cl)cc3)CC2)cc1
72 ng/mL | NC(=O)N(O)CCC#Cc1ccc(OCCN2CCC(=C3c4ccc(Cl)cc4CCc4cccnc43)CC2)cc1

same assay, conditions: read-out: Concentration, in vivo

concentration | Compound
350 nM | NC(=O)N(O)CCC#Cc1ccc(OCCN2CCN([C@H](c3ccccc3)c3ccc(Cl)cc3)CC2)cc1
129 nM | NC(=O)N(O)CCC#Cc1ccc(OCCN2CCC(=C3c4ccc(Cl)cc4CCc4cccnc43)CC2)cc1

tested on: not listed separately; experiment: Bioavailability in rat (dose 2 mg/kg p.o./i.v.); assay type: ADME, organism-based; settings: in vivo, po

bioavailability | Compound
23% | NC(=O)N(O)CCC#Cc1ccc(OCCN2CCN([C@H](c3ccccc3)c3ccc(Cl)cc3)CC2)cc1
8% | NC(=O)N(O)CCC#Cc1ccc(OCCN2CCC(=C3c4ccc(Cl)cc4CCc4cccnc43)CC2)cc1

molecular target: T1, Polyunsaturated fatty acid 5-lipoxygenase (Homo sapiens, UniProt P09917); experiment: Inhibition of 5-lipoxygenase activity in human whole blood assay; assay type: tissue-based; settings: not given
T1 sequence (P09917 whole entry): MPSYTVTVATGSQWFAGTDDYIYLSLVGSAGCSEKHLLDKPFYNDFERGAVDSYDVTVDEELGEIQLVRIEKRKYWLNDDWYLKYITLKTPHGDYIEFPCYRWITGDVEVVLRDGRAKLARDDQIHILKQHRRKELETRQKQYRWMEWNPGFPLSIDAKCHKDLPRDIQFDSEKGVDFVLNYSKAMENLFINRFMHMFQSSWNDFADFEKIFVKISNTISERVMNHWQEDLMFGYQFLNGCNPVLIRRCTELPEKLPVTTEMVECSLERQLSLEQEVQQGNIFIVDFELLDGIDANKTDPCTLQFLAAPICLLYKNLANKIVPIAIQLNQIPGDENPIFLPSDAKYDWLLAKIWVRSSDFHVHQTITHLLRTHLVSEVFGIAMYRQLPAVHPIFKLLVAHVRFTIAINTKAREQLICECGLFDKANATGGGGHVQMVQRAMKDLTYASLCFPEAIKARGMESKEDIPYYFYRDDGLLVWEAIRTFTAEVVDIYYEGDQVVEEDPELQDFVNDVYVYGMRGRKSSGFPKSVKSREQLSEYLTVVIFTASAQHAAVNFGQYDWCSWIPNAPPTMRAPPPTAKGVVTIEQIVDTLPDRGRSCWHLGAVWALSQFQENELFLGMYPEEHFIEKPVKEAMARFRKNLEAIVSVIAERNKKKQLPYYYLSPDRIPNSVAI

Compound | IC50
NC(=O)N(O)CCC#Cc1ccc(OCCN2CCN([C@H](c3ccccc3)c3ccc(Cl)cc3)CC2)cc1 | 213 nM
NC(=O)N(O)CCC#Cc1ccc(OCCN2CCN(C(c3ccc(F)cc3)c3ccc(F)cc3)CC2)cc1 | 48 nM
NC(=O)N(O)CCC#Cc1ccc(OCCCCN2CCN([C@H](c3ccccc3)c3ccc(Cl)cc3)CC2)cc1 | 68 nM
NC(=O)N(O)CCC#Cc1ccc(OCCCN2CCN(C(c3ccc(F)cc3)c3ccc(F)cc3)CC2)cc1 | 90 nM
NC(=O)N(O)CCC#Cc1ccc(OCCCN2CCN([C@H](c3ccccc3)c3ccc(Cl)cc3)CC2)cc1 | 96 nM
NC(=O)N(O)CCC#Cc1ccc(OCCCN2CCC(=C3c4ccc(Cl)cc4CCc4cccnc43)CC2)cc1 | 194 nM

Continued by falling IC50, values first:

IC50 | Compound
185 nM | NC(=O)N(O)CCC#Cc1ccc(OCCN2CCC(=C3c4ccc(Cl)cc4CCc4cccnc43)CC2)cc1
89 nM | NC(=O)N(O)CCC#Cc1ccc(OCCCCN2CCN(C(c3ccc(F)cc3)c3ccc(F)cc3)CC2)cc1
57 nM | NC(=O)N(O)CCC#Cc1ccc(OCCCCN2CCC(=C3c4ccc(Cl)cc4CCc4cccnc43)CC2)cc1

tested on: Cavia porcellus; experiment: Percent inhibition of calcium ionophore-induced LTB4 production in guinea pig after 3h of oral dose of 2 mg/kg; settings: not given

Compound | inhibition in vivo at 2 mg/kg
NC(=O)N(O)CCC#Cc1ccc(OCCN2CCN([C@H](c3ccccc3)c3ccc(Cl)cc3)CC2)cc1 | 41%
NC(=O)N(O)CCC#Cc1ccc(OCCN2CCC(=C3c4ccc(Cl)cc4CCc4cccnc43)CC2)cc1 | 84%
